The record followed here is US10351530B2, “Arylcyclohexyl pyrazoles as NRF2 regulators” (GlaxoSmithKline Intellectual Property Development Limited, priority 2015, dated 2019).

Experiment [1] deals with NQO1 specific enzyme activity in BEAS-2B cells. The experiment can be described thus: BEAS-2B NQO1 MTT Assay. It is filed as cell-based. The settings on record: Homo sapiens, BEAS-2B, 48 h, NQO1 specific activity induction. From the text:
NAD(P)H:quinone oxidoreductase 1 (NQO1), also called DT diaphorase, is a homodimeric FAD-containing enzyme that catalyzes obligatory NAD(P)H-dependent two-electron reductions of quinones and protects cells against the toxic and neoplastic effects of free radicals and reactive oxygen species arising from one-electron reductions. The transcription of NQO1 is finely regulated by NRF2, and thus NQO1 activity is a good marker for NRF2 activation. On day one, frozen BEAS-2B cells (ATCC) are thawed in a water bath, counted, and re-suspended at a concentration of 250,000 cells/mL. Fifty microliters of cells are plated in 384 well black clear-bottomed plates. Plates are incubated at 37° C., 5% CO2 overnight. On day two, plates are centrifuged and 50 nL of compound or controls are added to the cells. Plates are then incubated at 37° C., 5% CO2 for 48 hours. On day four, medium is aspirated from the plate and crude cell lysates are made by adding 13 uL of 1× Cell Signaling Technologies lysis buffer with 1 Complete, Mini, EDTA-free Protease Inhibitor Tablet (Roche) for each 10 mL of lysis buffer. After lysis plates are incubated for 20 minutes at room temperature. Two microliters of lysate are removed for use in Cell Titer Glo assay (Promega) and MTT cocktail is prepared (Prochaska et. al. 1998) for measurement of NQO1 activity. Fifty microliters of MTT cocktail is added to each well, plate is centrifuged, and analyzed on an Envision plate reader (Perkin Elmer) using Absorbance 570 nm label for 30 minutes. Product formation is measured kinetically and the pEC50 of NQO1 specific activity induction is calculated by plotting the change in absorbance (Delta OD/min) versus the log of compound concentration followed by 3-parameter fitting.

The target of experiment [2] is T1, Keap1/NRF2 (Homo sapiens, UniProt Q14145).
T1 construct: Keap1 (321-609) is diluted to 40 nM (2×) in 1× assay buffer
T1 sequence (Q14145 321-609): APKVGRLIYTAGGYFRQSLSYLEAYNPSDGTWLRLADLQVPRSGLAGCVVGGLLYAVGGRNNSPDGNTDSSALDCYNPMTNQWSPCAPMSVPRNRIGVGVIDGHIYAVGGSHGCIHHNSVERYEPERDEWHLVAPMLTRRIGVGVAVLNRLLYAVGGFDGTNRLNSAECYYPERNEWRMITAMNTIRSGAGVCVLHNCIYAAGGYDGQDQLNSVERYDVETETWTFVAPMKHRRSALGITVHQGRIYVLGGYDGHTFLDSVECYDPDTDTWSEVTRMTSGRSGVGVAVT
The experiment can be described thus: NRF2-Keap1 FP Assay (Kelch domain (321-609) of Keap1, TAMRA-labeled NRF2 ETGE peptide). It is filed as binding. The settings on record: Keap1 (321-609) 20 nM, Tamra labeled peptide 8 nM. From the text:
One model for the NRF2-Keap1 interaction is through two binding sites in the Neh2 domain on NRF2. The two sites are referred to as the DLG binding motif (latch domain, uM affinity) and the ETGE binding motif (hinge domain, nM affinity). The Keap1 protein consists of an N-terminal region (NTR), a broad complex, tramtrack, and brick a′ brac domain (BTB), an intervening region (IVR), a double glycine repeat domain (DGR or Kelch), and a C-terminal region. The DLG and ETGE motifs of NRF2's Neh2 domain bind to the Kelch domain of Keap1 at different affinities. In the Keap1 Kelch fluorescence polarization (FP) assay, a TAMRA-labeled 16 mer peptide (AFFAQLQLDEETGEFL) containing the ETGE motif of NRF2 and the Kelch domain (321-609) of Keap1 is used. The assay determines if a compound interferes with the binding between Keap1 […] and the TAMRA-labeled peptide. Binding of TAMRA-labeled NRF2 peptide to Keap1 (321-609) results in a high FP signal. If a compound interferes with the binding between the peptide and the protein, it will cause the assay signal to decrease. Thus, assay signal is inversely proportional to binding inhibition.
100 nl of 100× compound dose response curves (serial 3-fold dilutions) in DMSO are stamped using an Echo liquid handling system (Labcyte) into 384-well low volume black assay plates (Greiner, #784076), with DMSO in columns 6 and 18. The top concentration of compound is located in columns 1 and 13. Keap1 (321-609) is diluted to 40 nM (2×) in 1× assay buffer (50 mM Tris, pH 8.0, 100 mM NaCl, 5 mM MgCl2, 1 mM DTT, 2 mM CHAPS, and 0.005% BSA) and 5 ul is added using a Multidrop Combi (Thermo Electron Corporation) equipped with a metal tip dispenser to all wells of the compound plate, except column 18. Column 18 receives only 5 ul of assay buffer. Immediately, 5 uL of 16 nM (2×) of Tamra labeled peptide (AFFAQLQLDEETGEFL, 21st Century Biochemicals) is added to all wells of the plate. The plates are spun at 500 rpm for 1 min, incubated for 1 hr at room temperature, and read on an Analyst GT (Molecular Devices) equipped with excitation (530/25 nm) and emission (580/10 nm) filters designed for Tamra probes. A 561 nm dichroic mirror is also used in the Analyst. The final assay concentrations of Keap1 (321-609) and Tamra labeled peptide are 20 nM and 8 nM, respectively. Fluorescence measurements, represented as mP, are used in the transformation of the data. Compound activity is calculated based on percent inhibition, normalized against controls in the assay (Control 1 contains the Tamra peptide and Keap1 (321-609) together (0% response) and control 2 contains the Tamra peptide alone (100% response)). Data analysis is handled using the software package Abase XE (Surrey, United Kingdom. The % inhibition values are calculated by the equation: 100−(100*((compound response-average control 2)/(average control 1−average control 2))). For calculation of pIC50s, Abase XE uses a four parameter equation.

The target of experiment [3] is T2, NRF2/Keap1 (Homo sapiens, UniProt Q14145).
T2 construct: full length NRF2 protein and full length Keap1 protein (Keap1 exists a dimer) are used
T2 sequence (Q14145 whole entry): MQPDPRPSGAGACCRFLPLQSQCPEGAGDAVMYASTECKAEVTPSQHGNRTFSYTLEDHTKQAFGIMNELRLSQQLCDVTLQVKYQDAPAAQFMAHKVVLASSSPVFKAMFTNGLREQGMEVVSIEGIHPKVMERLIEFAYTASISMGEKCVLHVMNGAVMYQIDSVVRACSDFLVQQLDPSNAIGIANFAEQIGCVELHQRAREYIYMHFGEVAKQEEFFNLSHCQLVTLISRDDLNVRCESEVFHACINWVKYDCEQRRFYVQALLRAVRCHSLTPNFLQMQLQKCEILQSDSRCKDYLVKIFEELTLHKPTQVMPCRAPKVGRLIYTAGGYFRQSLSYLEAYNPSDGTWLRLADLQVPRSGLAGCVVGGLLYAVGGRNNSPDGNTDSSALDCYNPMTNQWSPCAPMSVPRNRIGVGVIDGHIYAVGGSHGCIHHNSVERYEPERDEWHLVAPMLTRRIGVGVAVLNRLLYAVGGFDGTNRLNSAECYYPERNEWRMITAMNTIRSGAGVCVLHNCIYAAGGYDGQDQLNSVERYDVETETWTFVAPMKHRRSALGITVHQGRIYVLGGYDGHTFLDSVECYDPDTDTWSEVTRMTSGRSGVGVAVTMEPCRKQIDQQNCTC
The experiment can be described thus: NRF2-Keap1 TR-FRET Assay (full length NRF2 and full length Keap1). It is filed as binding. The settings on record: 25 nM Keap1-FlagHis, 50 nM biotin-NRF2 added. An excerpt:
In the NRF2-Keap1 TR-FRET (time-resolved fluorescence resonance energy transfer) assay, full length NRF2 protein and full length Keap1 protein (Keap1 exists a dimer) are used. The assay detects the ability of compound to displace the binding of FlagHis-tagged Keap1 with biotinylated, Avi-tagged NRF2 protein. Biotin-NRF2 binds to streptavidin-europium (a component of the detection mix) and Keap1-FlagHis is recognized by anti-Flag APC (allophycocyanin) antibody (also a component of the detection mix). If binding occurs between the two proteins, there will be an energy transfer from the Eu+3 (donor) at 615 nm to the APC (acceptor) at 665 nm. A potential Keap1 inhibitor will cause a reduction in the TR-FRET signal by interfering with the binding of Keap1 to NRF2.
One hundred nanoliters of 100× compound dose response curves (serial 3-fold dilutions) in DMSO are stamped using an Echo liquid handling system (Labcyte) into 384-well, low volume, black assay plates (Greiner, #784076), with DMSO in columns 6 and 18. The top concentration of compound is located in columns 1 and 13. All reagents are diluted in assay buffer (50 mM Tris, pH 8.0, 5 mM MgCl2, 100 mM NaCl, 0.005% BSA, 1 mM DTT, and 2 mM CHAPS). The BSA, DTT, and CHAPS are added to the assay buffer on the day of assay. Using a Multidrop Combi (Thermo Electron Corporation) equipped with a metal tip dispenser, 5 ul of 25 nM Keap1-FlagHis protein is added to all wells of the compound plate, with the exception of the wells in column 18. Wells in column 18 receive 5 ul of assay buffer instead. Plates are centrifuged at 500 rpm for 1 minute, covered with a plate lid, and incubated at 37° C. for 2.25 hours. Plates are then removed from the incubator and allowed to cool to RT for 15 minutes. Five microliters of 50 nM biotin-NRF2 protein is then added to all wells of the plates and the plates are spun at 500 rpm for 1 minute, followed by incubating at 4° C. for 1.25 hours. The plates are then allowed to warm to RT for 15 minutes, followed by the addition of 10 ul of detection mix (1 nM Streptavidin Eu+ W1024 and 5 ug/ml mouse anti-DYKDDDDK IgG conjugated to SureLight APC antibody; both from Columbia Biosciences) to all wells. Plates are spun at 500 rpm for 1 minute, incubated for 1 hour at RT, and read on an Envision plate reader using a 320 nm excitation filter and 615 nm and 665 nm emission filters. Compound response (% inhibition) and potency (pIC50) are calculated based on the ratio of the two emissions (665 nm/615 nm) and then the transformed data is normalized against controls in the assay (control 1=1% DMSO in the presence of NRF2 and Keap1 protein and control 2=1% DMSO in the absence of protein). Data analysis is handled using the software package Abase XE (Surrey, United Kingdom). The % inhibition values are calculated from the ratio (transformed) data by the equation: 100−(100*(compound response-average control 2)/(average control 1−average control 2)).
For calculation of pIC50s, Abase XE uses a four parameter equation.
(Time-resolved FRET reads energy transfer from a long-lived donor to a nearby acceptor.)

The EC50 is the concentration that produces a half-maximal response. A high value points to a need for much substance. Broadly, the IC50 is the concentration that inhibits the measured activity by half. A high value points to lower potency. On to `O=C(O)c1cnn(-c2cccc(C3CCC(n4ncc5c4CCC5)C3)c2)c1C1CC1` (mixture of isomers) [Example 10, 1-[3-(3-{1H,4H,5H,6H-cyclopenta[c]pyrazol-1-yl}cyclopentyl)phenyl]-5-cyclopropyl-1H-pyrazole-4-carboxylic Acid], for which, in experiment [1], the EC50 fell in the range of 1000 to 10000 nM. The IC50 in experiment [2] is 100 to 1000 nM; in experiment [3], 10000 to 100000 nM.
The corresponding values for `CN(C)C(=O)[C@H]1CCC[C@@H](c2cccc(-n3ncc(C(=O)O)c3C3CC3)c2)C1` (racemic) [Example 1, 5-Cyclopropyl-1-{3-[3-(dimethylcarbamoyl)cyclohexyl]phenyl}-1H-pyrazole-4-carboxylic Acid] are 1000 to 10000 nM, 100 to 1000 nM and 1000 to 10000 nM.
The corresponding values for `O=C(O)c1cnn(-c2cccc(C3CCCC(n4ncc5c4CCCC5)C3)c2)c1C1CC1` (racemic) [Example 2, 5-Cyclopropyl-1-{3-[3-(4,5,6,7-tetrahydro-1H-indazol-1-yl)cyclohexyl]phenyl}-1H-pyrazole-4-carboxylic Acid] are 1000 to 10000 nM, 100 to 1000 nM and 1000 to 10000 nM.
On the same counts, the results for `O=C(O)c1cnn(-c2cccc([C@H]3CCC[C@@H](C(=O)N4CCCCC4)C3)c2)c1C1CC1` (racemic) [Example 3, 5-Cyclopropyl-1-{3-[3-(piperidine-1-carbonyl)cyclohexyl]phenyl}-1H-pyrazole-4-carboxylic Acid] are 1000 to 10000 nM, 100 to 1000 nM and 1000 to 10000 nM.
In turn, `O=C(O)c1cnn(-c2cccc([C@@H]3CCC[C@H](C(=O)N4CCCC5(CCCC5)C4)C3)c2)c1C1CC1` (racemic) [Example 4, 1-[3-(3-{7-Azaspiro[4.5]decane-7-carbonyl}cyclohexyl)phenyl]-5-cyclopropyl-1H-pyrazole-4-carboxylic Acid] came in with a 50% effective concentration (EC50) in experiment [1] of 1000 to 10000 nM. Moreover, the 50% inhibitory concentration (IC50) was in the range of 100 to 1000 nM in experiment [2] and 1000 to 10000 nM in experiment [3].
In experiment [1], `CCCC1CCCCN1C(=O)[C@H]1CCC[C@@H](c2cccc(-n3ncc(C(=O)O)c3C3CC3)c2)C1` (mixture of isomers) [Example 5, 5-Cyclopropyl-1-{3-[3-(2-propylpiperidine-1-carbonyl)cyclohexyl]phenyl}-1H-pyrazole-4-carboxylic Acid] displayed a concentration giving a half-maximal response (EC50) of 1000 to 10000 nM. The half-inhibitory concentration (IC50) lay in the range of 100 to 1000 nM in experiment [2] and 1000 to 10000 nM in experiment [3].
Consider `CC1(C)CCCN1C(=O)C1CCCC(c2cccc(-n3ncc(C(=O)O)c3C3CC3)c2)C1` (racemic) [Example 6, 5-cyclopropyl-1-{3-[3-(2,2-dimethylpyrrolidine-1-carbonyl)cyclohexyl]phenyl}-1H-pyrazole-4-carboxylic Acid], for which, in experiment [1], the EC50 is 1000 to 10000 nM. The IC50 in experiment [2] was in the range of 100 to 1000 nM; in experiment [3] it was 1000 to 10000 nM.
`O=C(O)c1cnn(-c2cccc(C3CCCC(C(=O)N4CCCC45CCCCC5)C3)c2)c1C1CC1` (racemic) [Example 7, 1-[3-(3-{1-Azaspiro[4.5]decane-1-carbonyl}cyclohexyl)phenyl]-5-cyclopropyl-1H-pyrazole-4-carboxylic Acid] gave an EC50 in experiment [1] of 1000 to 10000 nM. The values for the IC50 in experiment [2] and in experiment [3] were 100 to 1000 nM and 1000 to 10000 nM, respectively.
The compound `O=C(O)c1cnn(-c2cccc(C3CCCC(n4ncc5c4CCCCC5)C3)c2)c1C1CC1` (racemic) [Example 9, 1-[3-(3-{1H,4H,5H,6H,7H,8H-cyclohepta[c]pyrazol-1-yl}cyclohexyl)phenyl]-5-cyclopropyl-1H-pyrazole-4-carboxylic Acid] had an EC50 in experiment [1] of 1000 to 10000 nM. Also, the half-inhibitory concentration (IC50) in experiment [2] lay within 100 to 1000 nM; in experiment [3] it was 1000 to 10000 nM.
The compound `O=C(O)c1cnn(-c2cccc(C3CCCC(C(=O)N4CCCC4C4CCC4)C3)c2)c1C1CC1` (racemic) [Example 13, 1-{3-[3-(2-cyclobutylpyrrolidine-1-carbonyl)cyclohexyl]phenyl}-5-cyclopropyl-1H-pyrazole-4-carboxylic Acid] yielded an EC50 in experiment [1] of 1000 to 10000 nM. Besides, the IC50 in experiment [2] lay in the range of 10 to 100 nM; in experiment [3], 100 to 1000 nM.
On the same counts, the results for `CC1CCc2cnn([C@@H]3CCC[C@H](c4cccc(-n5ncc(C(=O)O)c5C5CC5)c4)C3)c21` (mixture of isomers) [Example 14, 5-Cyclopropyl-1-{3-[(cis)-3-(6-methyl-5,6-dihydro-4H-cyclopentapyrazol-1-yl)-cyclohexyl]-phenyl}-1H-pyrazole-4-carboxylic Acid] are 1000 to 10000 nM, 100 to 1000 nM and 1000 to 10000 nM.
